Experimental data: patent US12582635B2, “Compositions and methods for treating cancer with atypical BRAF mutations” (BIOMED VALLEY DISCOVERIES, INC., priority 2017, dated 2026)
Like-named read-outs stand apart in the source and are kept apart here.

What was measured:
ERK1/2 [1] = test: autophosphorylation of ERK (mechanism of action of ERK1/2 inhibitors); type: biochemical; details: stated in the description, no test described
[2] = tested on: cancers harboring atypical (non-V600E/K) BRAF mutations; test: solid tumor Phase 1b trial of BVD-523, tumor response by RECIST v1.1 and duration of treatment; type: in vivo, human; details: for duration of treatment: single patient
Protocol: The waterfall plot depicted in FIG. 2 provides an illustration of human clinical trial patient information showing each individual patient's response to treatment with BVD-523, as measured by % change in tumor burden. Patients generally received 600 mg, twice daily (BID), with some patients receiving a deescalated dose of 300 mg-400 mg BID if side effects were not manageable with other palliative medication. […] The horizontal axis across the plot serves as a baseline measurement for each patient. The vertical axis is a measure of the maximum percentage change from baseline; i.e., percent growth or reduction of tumor burden by radiologic measurement according to RECIST v1.1. Radiologic measurement comprised computed tomography (CT) scan and, rarely, magnetic resonance imaging (MRI). The tumor burden data represented by FIG. 2 is arranged from the worst value (i.e. greatest progression of tumor burden) on the left side of the plot to the best value (i.e., greatest reduction of tumor burden) on the right side of the plot. RECIST v1.1 response criteria for measured target lesions have been described previously. (See Eisenhauer, E. A., et al., New response evaluation criteria in solid tumours: Revised RECIST guideline (version 1.1), European J. of Cancer 45, 228-247 (2009), incorporated by reference herein in its entirety). […] Members of Group 1 are any patients with any BRAF mutation in any tumor type other than colorectal cancer (CRC) and non-small cell lung carcinoma (NSCLC), and that have not been previously treated with a MAPK pathway inhibitor. The members of Group 2 are patients with any BRAF mutation in CRC that have not been previously treated with a MAPK pathway inhibitor. The members of Group 3 are patients having a tumor with a BRAF […] mutation that is refractory to MAPK inhibitor treatment. The members of Group 6 are patients with any BRAF mutation present in NSCLC. […] The duration of treatment for each subject in each group is illustrated from the top (longest treatment duration) to bottom (least treatment duration) of the groups. The horizontal axis represents the duration, in days, that the patient was on the study. […] All 28 patients measured for RECIST v1.1 response criteria are included, plus additional patients not evaluated by RECIST v1.1 (diamond=partial response; circle=stable disease: vertical bar=progressive disease; triangle=not evaluated). The mean duration of BVD-523 treatment before discontinuation for tumors harboring the same BRAF mutation was: […], 73.6 days; […], 208.14 days: […], 50.25 days: […], 73.3 days; […], 63.5 days. For single patient representatives of specific BRAF mutations, the duration of treatment was: […], 304 days: […], 84 days: […], 77 days: BRAF fusion, 65 days: BRAF-AGAP3 rearrangement, 43 days: BRAF exon 15 splice variant, 15 days. By genomic screening of cancer patients for BRAF mutation and treating them prior to full in vitro characterization of those mutations (as a driver mutation), BVD-523 is shown to be useful to interrogate and discover efficacious treatment options for patients carrying mutations in BRAF. The clinical population of patients and the efficacy is not defined primarily by tumor type, but rather mutational status of enzymes such as BRAF, upstream of ERK 1/2 kinase activation.

ERK1/2 [3] = details: Morris et al., 2013; cited from earlier work
[4] = 28 evaluable patients, RECIST v1.1, generally 600 mg BID

| SMILES | effect on autophosphorylation of ERK (ERK1/2 [1]) | number of patients with partial response (PR) [2, 4] | number of patients with progressive disease at first evaluation [2, 4] | number of patients with stable disease [2, 4] [patients] | patients with partial response or stable disease ([2]; patients with atypical (non-V600E/K) BRAF mutations, RECIST v1.1) | duration of treatment ([2]; BRAF F247L) [days] | duration of treatment ([2]; BRAF G466V) [days] | duration of treatment ([2]; BRAF L485W) [days] | duration of treatment ([2]; BRAF exon 15 splice variant) [days] | duration of treatment ([2]; BRAF fusion) [days] | duration of treatment ([2]; BRAF-AGAP3 rearrangement) [days] | mean duration of treatment before discontinuation ([2]; tumors harboring BRAF D594) [days] | mean duration of treatment before discontinuation ([2]; tumors harboring BRAF G469) [days] | mean duration of treatment before discontinuation ([2]; tumors harboring BRAF K601E) [days] | mean duration of treatment before discontinuation ([2]; tumors harboring BRAF L597) [days] | mean duration of treatment before discontinuation ([2]; tumors harboring BRAF T599 Dup) [days] | effect on autophosphorylation of ERK (ERK1/2 [3]) |
| --- | --- | --- | --- | --- | --- | --- | --- | --- | --- | --- | --- | --- | --- | --- | --- | --- | --- |
| CC(C)Nc1cc(-c2c[nH]c(C(=O)N[C@H](CO)c3cccc(Cl)c3)c2)c(Cl)cn1 [BVD-523] | allows for the autophosphorylation of ERK while still inhibiting ERK | Five | Three | 19 | 24 out of 28 | 84 | 77 | 304 | 15 | 65 | 43 | 73.6 | 208.14 | 50.25 | 73.3 | 63.5 |  |
| O=C(Nc1ccc2[nH]nc(-c3ccncc3)c2c1)[C@@H]1CCN(CC(=O)N2CCN(c3ccc(-c4ncccn4)cc3)CC2)C1 [SCH772984] |  |  |  |  |  |  |  |  |  |  |  |  |  |  |  |  | inhibit autophosphorylation of ERK |
